Test results reported in US20100278938A1, “GENETIC TEST AND PET DIET” (MARS, INC, priority 2007, published 2010).

Test: Pharmacokinetic study of oral zinc gluconate, plasma zinc by atomic absorption spectrometry
Assay type: in vivo, Labrador Retrievers
Set-up: unit not given here
Procedure: Two unrelated nine-year old, healthy Labrador Retrievers (1 female and 1 male) were used in a pharmacokinetic study. Food was withheld for a 12-hour period prior to oral administration of zinc, and during the initial 6-hour testing period. Water was freely available. […] Heparinized blood samples (4 ml) were collected from the jugular vein before dosing (time 0) and 15, 30, 45, 60, 90, 120 minutes, and 4, 8, 12 and 24 hours after application of the drug. Plasma was stored at −20° C. until analysis for zinc using atomic absorption spectrometry.
In addition the test was used to detect a difference between group-1 and group-2 before the study, at recheck-1, and at recheck-2 (significance level p<0.05).

zinc gluconate
K01: absorption rate constant (Dog 1, oral 10 mg/kg): 0.5672
K10: elimination rate constant (Dog 1, oral 10 mg/kg): 0.05373
K01: absorption rate constant (Dog 2, oral 5 mg/kg): 1.161
K10: elimination rate constant (Dog 2, oral 5 mg/kg): 0.03789
